Source: patent US7053055B2, “Compounds of unstable DP IV-inhibitors” (priority 1998, dated 2006)

Assays:
DP IV [1] = molecular target: T1, DP IV (Homo sapiens, UniProt P27487); assay: DP IV-catalysed hydrolysis of H-Gly-Pro-pNA in the presence of inhibitor (progress curves); type: biochemical
Procedure: When the DP IV target enzyme is incubated with unstable inhibitors in the presence of a substrate, inhibition of the enzyme is observed initially; the inhibition subsides again as the experimental time progresses as a result of the intramolecular cyclisation of the inhibitor which takes place in parallel, since the concentration of the inhibitor in the reaction solution decreases as a result of the spontaneously occurring chemical reaction. Because of the time-dependent drop in the concentration of the inhibitor, the rate of the enzyme-catalysed hydrolysis of the substrate increases again as time progresses.
(§1) The active DP IV-inhibitor H-Val-Pro-CH2—(N^+C5H5) is released only as a result of the addition of the DP IV enzyme (used here by way of example also to release the DP IV-inhibitor) with removal of the N-terminal dipeptide H-Gly-Pro-OH. Accordingly, in the mass spectrum (FIG. 7) markedly more than 50% of the incubated compound according to the invention can be detected even after an incubation period of 60 minutes.

DP IV [2] = molecular target: T1, DP IV; assay: Stability and DP IV-catalysed cleavage of the masked compound, MALDI-TOF mass spectrum of incubation batch; type: biochemical
Procedure: as §1

[3] = Intramolecular cyclisation (stability) in 0.1 M HEPES buffer quantified by UV spectrometry; type: physicochemical; details: pH=7.6, 25° C.; for k (rate constant of intramolecular cyclisation): UV spectrometry
Procedure: The cyclisation reaction was monitored over a period of 40 minutes. The formation of the double bond system of the pyrazine, which takes place during the intramolecular reaction, enables quantitative analysis of the cyclisation process by means of UV spectrometry (FIG. 4). The rate constants determined there from for the intramolecular cyclisation of unstable DP IV-inhibitors in 0.1 M HEPES buffer, pH=7.6, 25° C., are shown in Table 1.

[4] = Intramolecular cyclisation in aqueous buffer solution monitored by MALDI-TOF mass spectrometry; type: physicochemical; details: aqueous buffer solution pH=7.6, MALDI-TOF MS
Excerpt: The products of that reaction are the respective pyrazine derivatives (FIG. 1).

T1 sequence (P27487 whole entry): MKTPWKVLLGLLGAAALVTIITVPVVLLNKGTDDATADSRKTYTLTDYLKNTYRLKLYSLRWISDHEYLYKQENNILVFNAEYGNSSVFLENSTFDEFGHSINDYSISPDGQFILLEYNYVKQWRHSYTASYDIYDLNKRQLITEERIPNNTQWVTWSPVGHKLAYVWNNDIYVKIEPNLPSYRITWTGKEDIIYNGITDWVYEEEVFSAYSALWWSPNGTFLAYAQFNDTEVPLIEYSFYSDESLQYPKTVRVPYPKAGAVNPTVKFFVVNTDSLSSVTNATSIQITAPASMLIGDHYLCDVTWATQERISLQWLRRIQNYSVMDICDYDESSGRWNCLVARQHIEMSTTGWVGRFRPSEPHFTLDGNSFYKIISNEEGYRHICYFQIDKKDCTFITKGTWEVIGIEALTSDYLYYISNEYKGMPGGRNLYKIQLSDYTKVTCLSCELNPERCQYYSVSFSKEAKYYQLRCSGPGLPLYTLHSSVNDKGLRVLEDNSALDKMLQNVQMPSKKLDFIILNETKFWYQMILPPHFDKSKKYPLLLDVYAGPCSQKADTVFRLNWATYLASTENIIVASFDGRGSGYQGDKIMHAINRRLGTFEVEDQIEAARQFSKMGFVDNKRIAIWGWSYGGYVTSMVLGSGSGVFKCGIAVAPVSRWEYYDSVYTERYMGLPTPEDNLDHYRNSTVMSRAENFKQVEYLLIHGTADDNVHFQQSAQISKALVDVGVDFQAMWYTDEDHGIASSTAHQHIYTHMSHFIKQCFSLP

half-life [3] [min] | Period within which breakdown to the cyclic pyrazine derivative is completed quantitatively [4] [min] | SMILES | Duration of DP IV-inhibitory activity compared with the unstable DP IV-inhibitors (DP IV [1]; 2.6×10^−5 mol/litre compound, FIG. 8) | Inhibition of the target enzyme DP IV (DP IV [1]; substrate H-Gly-Pro-pNA, 0.06 μg/ml DP IV, 0.1 M HEPES pH=7.6, 30° C.) | Incubated compound still detectable in mass spectrum (DP IV [2]; incubation with 0.06 μg/ml DP IV, 0.1 M HEPES pH=7.6, 30° C., after 60 minutes) | Stability in buffered aqueous solution in the absence of an enzyme (DP IV [2]; over a period of 24 hours) | k (rate constant of intramolecular cyclisation) [3] [min⁻¹]
– | – | CC(C)C(NC(=O)C1CCCN1C(=O)CN)C(=O)N1CCCC1C(=O)C[n+]1ccccc1.[Cl-] (stereo not drawn) [H-Gly-Pro-Val-Pro-CH2—(N+C5H5), H-Gly-Pro-Val-Pro-CH2—(N^+C5H5)/C1^−] | markedly prolonged activity | effective inhibition of the target enzyme | more than 50% | stable | –
9.6 | ≤ 30 | NC(Cc1ccccc1)C(=O)N1CCCC1C(=O)C[n+]1ccccc1.[Cl-] (stereo not drawn) [H-Phe-Pro-CH2-(N^+C5H5), H-Phe-Pro-CH2—(N^+C5H5)/C1^−] | – | – | – | – | 0.0012
13.3 | ≤ 60 | CC(C)C(N)C(=O)N1CCCC1C(=O)C[n+]1ccccc1.[Cl-] (stereo not drawn) [H-Val-Pro-CH2-(N^+C5H5), H-Val-Pro-CH2—(N^+C5H5)/C1] | – | – | – | – | 0.00087
